PubChem BioAssay (NCI)
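GI50 marks 50% less growth. At the TGI there is no net growth.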

Tests used:
Assay in all cases: NCI anticancer screen, dose series, 384-well format
786-0 renal = tested on: 786-0 renal
A498 renal = tested on: A498 renal
A549 NSCLC = tested on: A549 NSCLC
ACHN renal = tested on: ACHN renal
BT-549 breast = tested on: BT-549 breast
CAKI-1 renal = tested on: CAKI-1 renal
CCRF-CEM leukemia = tested on: CCRF-CEM leukemia
COLO 205 colon = tested on: COLO 205 colon
DU-145 prostate = tested on: DU-145 prostate
EKVX NSCLC = tested on: EKVX NSCLC
HCC-2998 colon = tested on: HCC-2998 colon
HCT-116 colon = tested on: HCT-116 colon
HCT-15 colon = tested on: HCT-15 colon
HL-60(TB) leukemia = tested on: HL-60(TB) leukemia
HOP-62 NSCLC = tested on: HOP-62 NSCLC
HOP-92 NSCLC = tested on: HOP-92 NSCLC
HS 578T breast = tested on: HS 578T breast
HT29 colon = tested on: HT29 colon
IGROV1 ovarian = tested on: IGROV1 ovarian
K-562 leukemia = tested on: K-562 leukemia
KM12 colon = tested on: KM12 colon
LOX IMVI melanoma = tested on: LOX IMVI melanoma
M14 melanoma = tested on: M14 melanoma
MALME-3M melanoma = tested on: MALME-3M melanoma
MCF7 breast = tested on: MCF7 breast
MDA-MB-231 breast = tested on: MDA-MB-231 breast
MDA-MB-435 melanoma = tested on: MDA-MB-435 melanoma
MDA-MB-468 breast = tested on: MDA-MB-468 breast
MOLT-4 leukemia = tested on: MOLT-4 leukemia
NCI-H226 lung = tested on: NCI-H226 lung
NCI-H23 lung = tested on: NCI-H23 lung
NCI-H322M lung = tested on: NCI-H322M lung
NCI-H460 NSCLC = tested on: NCI-H460 NSCLC
NCI-H522 lung = tested on: NCI-H522 lung
NCI/ADR-RES ovarian = tested on: NCI/ADR-RES ovarian
OVCAR-3 ovarian = tested on: OVCAR-3 ovarian
OVCAR-4 ovarian = tested on: OVCAR-4 ovarian
OVCAR-5 ovarian = tested on: OVCAR-5 ovarian
OVCAR-8 ovarian = tested on: OVCAR-8 ovarian
PC-3 prostate = tested on: PC-3 prostate
RPMI-8226 leukemia = tested on: RPMI-8226 leukemia
RXF 393 renal = tested on: RXF 393 renal
SF-268 CNS = tested on: SF-268 CNS
SF-295 CNS = tested on: SF-295 CNS
SF-539 CNS = tested on: SF-539 CNS
SK-MEL-2 melanoma = tested on: SK-MEL-2 melanoma
SK-MEL-28 melanoma = tested on: SK-MEL-28 melanoma
SK-MEL-5 melanoma = tested on: SK-MEL-5 melanoma
SK-OV-3 ovarian = tested on: SK-OV-3 ovarian
SN12C renal = tested on: SN12C renal
SNB-19 CNS = tested on: SNB-19 CNS
SNB-75 CNS = tested on: SNB-75 CNS
SW-620 colon = tested on: SW-620 colon
T-47D breast = tested on: T-47D breast
TK-10 renal = tested on: TK-10 renal
U251 glioblastoma = tested on: U251 glioblastoma
UACC-257 melanoma = tested on: UACC-257 melanoma
UACC-62 melanoma = tested on: UACC-62 melanoma
UO-31 renal = tested on: UO-31 renal

Question: How did the GI50 ([…]-0 renal) turn out when `C[C@]12O[C@H](C[C@]1(O)CO)n1c3ccccc3c3c4c(c5c6ccccc6n2c5c31)CNC4=O` was run?
Answer: 31.3 nM

Question: What about the TGI (786-0 renal) of the same compound?
Answer: 515 nM

Question: And the GI50 (A498 renal)?
Answer: < 10 nM

Question: What about the TGI (A498 renal) of the same compound?
Answer: 1370 nM

Question: And the GI50 (A549 NSCLC)?
Answer: 76.3 nM

Question: What about the TGI (A549 NSCLC) of the same compound?
Answer: 1590 nM

Question: What about the GI50 (ACHN renal) of the same compound?
Answer: < 10 nM

Question: And the TGI (ACHN renal)?
Answer: 1680 nM

Question: And the GI50 (BT-549 breast)?
Answer: 12.3 nM

Question: And the TGI (BT-549 breast)?
Answer: 213 nM

Question: And the GI50 (CAKI-1 renal)?
Answer: < 10 nM

Question: What about the TGI (CAKI-1 renal) of the same compound?
Answer: 228 nM

Question: What about the GI50 (CCRF-CEM leukemia) of the same compound?
Answer: 11.3 nM

Question: What about the TGI (CCRF-CEM leukemia) of the same compound?
Answer: 39.7 nM

Question: And the GI50 (COLO 205 colon)?
Answer: 20.2 nM

Question: And the TGI (COLO 205 colon)?
Answer: 103 nM

Question: And the GI50 (DU-145 prostate)?
Answer: < 10 nM

Question: What about the TGI (DU-145 prostate) of the same compound?
Answer: 1620 nM

Question: And the GI50 (EKVX NSCLC)?
Answer: 33.6 nM

Question: And the TGI (EKVX NSCLC)?
Answer: 471 nM

Question: What about the GI50 (HCC-2998 colon) of the same compound?
Answer: 153 nM

Question: And the TGI (HCC-2998 colon)?
Answer: 773 nM

Question: What about the GI50 (HCT-116 colon) of the same compound?
Answer: < 10 nM

Question: What about the TGI (HCT-116 colon) of the same compound?
Answer: 10300 nM

Question: What about the GI50 (HCT-15 colon) of the same compound?
Answer: < 10 nM

Question: What about the TGI (HCT-15 colon) of the same compound?
Answer: 1300 nM

Question: And the GI50 (HL-60(TB) leukemia)?
Answer: < 10 nM

Question: What about the TGI (HL-60(TB) leukemia) of the same compound?
Answer: 51.6 nM

Question: And the GI50 (HOP-62 NSCLC)?
Answer: 44.5 nM

Question: What about the TGI (HOP-62 NSCLC) of the same compound?
Answer: 646 nM

Question: What about the GI50 (HOP-92 NSCLC) of the same compound?
Answer: 70.6 nM

Question: What about the TGI (HOP-92 NSCLC) of the same compound?
Answer: 720 nM

Question: And the GI50 (HS 578T breast)?
Answer: 33.9 nM

Question: And the TGI (HS 578T breast)?
Answer: 769 nM

Question: What about the GI50 (HT29 colon) of the same compound?
Answer: 212 nM

Question: And the TGI (HT29 colon)?
Answer: 10500 nM

Question: What about the GI50 (IGROV1 ovarian) of the same compound?
Answer: < 10 nM

Question: What about the TGI (IGROV1 ovarian) of the same compound?
Answer: 1150 nM

Question: And the GI50 (K-562 leukemia)?
Answer: 60.1 nM

Question: What about the TGI (K-562 leukemia) of the same compound?
Answer: 1610 nM

Question: What about the GI50 (KM12 colon) of the same compound?
Answer: < 10 nM

Question: And the TGI (KM12 colon)?
Answer: 212 nM

Question: And the GI50 (LOX IMVI melanoma)?
Answer: 25.3 nM

Question: And the TGI (LOX IMVI melanoma)?
Answer: 186 nM

Question: What about the GI50 (M14 melanoma) of the same compound?
Answer: < 10 nM

Question: And the TGI (M14 melanoma)?
Answer: 155 nM

Question: And the GI50 (MALME-3M melanoma)?
Answer: < 10 nM

Question: What about the TGI (MALME-3M melanoma) of the same compound?
Answer: 79.5 nM

Question: And the GI50 (MCF7 breast)?
Answer: 64.2 nM

Question: What about the TGI (MCF7 breast) of the same compound?
Answer: 1330 nM

Question: And the GI50 (MDA-MB-231 breast)?
Answer: 60.9 nM

Question: What about the TGI (MDA-MB-231 breast) of the same compound?
Answer: 1540 nM

Question: And the GI50 (MDA-MB-435 melanoma)?
Answer: < 10 nM

Question: And the TGI (MDA-MB-435 melanoma)?
Answer: 1110 nM

Question: What about the GI50 (MDA-MB-468 breast) of the same compound?
Answer: 21.5 nM

Question: What about the TGI (MDA-MB-468 breast) of the same compound?
Answer: 290 nM

Question: And the GI50 (MOLT-4 leukemia)?
Answer: < 10 nM

Question: And the TGI (MOLT-4 leukemia)?
Answer: 12.8 nM

Question: And the GI50 (NCI-H226 lung)?
Answer: 57.4 nM

Question: What about the TGI (NCI-H226 lung) of the same compound?
Answer: 734 nM

Question: And the GI50 (NCI-H23 lung)?
Answer: 24.1 nM

Question: What about the TGI (NCI-H23 lung) of the same compound?
Answer: 311 nM

Question: What about the GI50 (NCI-H322M lung) of the same compound?
Answer: 584 nM

Question: What about the TGI (NCI-H322M lung) of the same compound?
Answer: 2140 nM

Question: What about the GI50 (NCI-H460 NSCLC) of the same compound?
Answer: 34.8 nM

Question: What about the TGI (NCI-H460 NSCLC) of the same compound?
Answer: 1090 nM

Question: And the GI50 (NCI-H522 lung)?
Answer: < 10 nM

Question: What about the TGI (NCI-H522 lung) of the same compound?
Answer: 111 nM

Question: And the GI50 (NCI/ADR-RES ovarian)?
Answer: 1200 nM

Question: And the TGI (NCI/ADR-RES ovarian)?
Answer: 2460 nM

Question: And the GI50 (OVCAR-3 ovarian)?
Answer: 157 nM

Question: What about the TGI (OVCAR-3 ovarian) of the same compound?
Answer: 1280 nM

Question: And the GI50 (OVCAR-4 ovarian)?
Answer: 1380 nM

Question: What about the TGI (OVCAR-4 ovarian) of the same compound?
Answer: 3200 nM

Question: What about the GI50 (OVCAR-5 ovarian) of the same compound?
Answer: 122 nM

Question: What about the TGI (OVCAR-5 ovarian) of the same compound?
Answer: 1900 nM

Question: What about the GI50 (OVCAR-8 ovarian) of the same compound?
Answer: 96.5 nM

Question: What about the TGI (OVCAR-8 ovarian) of the same compound?
Answer: 275 nM

Question: And the GI50 (PC-3 prostate)?
Answer: 100 nM

Question: And the TGI (PC-3 prostate)?
Answer: 1860 nM

Question: What about the GI50 (RPMI-8226 leukemia) of the same compound?
Answer: 11.6 nM

Question: What about the TGI (RPMI-8226 leukemia) of the same compound?
Answer: 39.8 nM

Question: And the GI50 (RXF 393 renal)?
Answer: < 10 nM

Question: What about the TGI (RXF 393 renal) of the same compound?
Answer: 49.6 nM

Question: What about the GI50 (SF-268 CNS) of the same compound?
Answer: 44.2 nM

Question: And the TGI (SF-268 CNS)?
Answer: 1400 nM

Question: And the GI50 (SF-295 CNS)?
Answer: 44.7 nM

Question: And the TGI (SF-295 CNS)?
Answer: 1260 nM

Question: What about the GI50 (SF-539 CNS) of the same compound?
Answer: 24.2 nM

Question: And the TGI (SF-539 CNS)?
Answer: 276 nM

Question: And the GI50 (SK-MEL-2 melanoma)?
Answer: < 10 nM

Question: And the TGI (SK-MEL-2 melanoma)?
Answer: 84.7 nM

Question: What about the GI50 (SK-MEL-28 melanoma) of the same compound?
Answer: 35.8 nM

Question: What about the TGI (SK-MEL-28 melanoma) of the same compound?
Answer: 453 nM

Question: What about the GI50 (SK-MEL-5 melanoma) of the same compound?
Answer: < 10 nM

Question: What about the TGI (SK-MEL-5 melanoma) of the same compound?
Answer: 145 nM

Question: And the GI50 (SK-OV-3 ovarian)?
Answer: < 10 nM

Question: What about the TGI (SK-OV-3 ovarian) of the same compound?
Answer: 627 nM

Question: What about the GI50 (SN12C renal) of the same compound?
Answer: < 10 nM

Question: And the TGI (SN12C renal)?
Answer: 458 nM

Question: What about the GI50 (SNB-19 CNS) of the same compound?
Answer: 341 nM

Question: And the TGI (SNB-19 CNS)?
Answer: 1850 nM

Question: What about the GI50 (SNB-75 CNS) of the same compound?
Answer: 143 nM

Question: And the TGI (SNB-75 CNS)?
Answer: 1160 nM

Question: And the GI50 (SW-620 colon)?
Answer: 41.6 nM

Question: And the TGI (SW-620 colon)?
Answer: 1450 nM

Question: What about the GI50 (T-47D breast) of the same compound?
Answer: 456 nM

Question: What about the TGI (T-47D breast) of the same compound?
Answer: 4260 nM

Question: And the GI50 (TK-10 renal)?
Answer: < 10 nM

Question: And the TGI (TK-10 renal)?
Answer: 598 nM

Question: And the GI50 (U251 glioblastoma)?
Answer: 290 nM

Question: What about the TGI (U251 glioblastoma) of the same compound?
Answer: 1880 nM

Question: What about the GI50 (UACC-257 melanoma) of the same compound?
Answer: 395 nM

Question: What about the TGI (UACC-257 melanoma) of the same compound?
Answer: 1680 nM

Question: What about the GI50 (UACC-62 melanoma) of the same compound?
Answer: < 10 nM

Question: And the TGI (UACC-62 melanoma)?
Answer: 610 nM

Question: And the GI50 (UO-31 renal)?
Answer: 14.9 nM

Question: And the TGI (UO-31 renal)?
Answer: 1160 nM
